Laboratory results as given in US6653529B2, “Use of the maize X112 mutant ahas 2 gene and imidazolinone herbicides for selection of transgenic monocots, maize, rice and wheat plants resistant to the imidazolinone herbicides” (BASF Aktiengesellschaft, priority 2000, dated 2003).

Columns and labels:
Format in all cases: in vivo
[1] = test system: rice plants (transgenic Lines 26 and 29; Nt control); assay: Greenhouse herbicide tests on rice; conditions: for effect on growth of all plants treated: transgenic and control plants
Source text: We evaluated the response of transgenic rice to PURSUIT® imazethapyr application in the greenhouse. In this experiment, we included 2 transgenic lines and their untransformed counterpart (Nt). The transgenic lines, designated as Line 26 and 29, were T3 progeny derived from previously identified homozygous resistant transgenic plants containing the maize XI12 ahas2 gene driven by its own promoter. All seeds were pre-germinated in water for 2-3 days then grown in a planting mixture consisting of 1:1 soil and MetroMix 360 (The Scotts Company, Marysville, Ohio 43040) in 6-inch pots (2 seeds per pot) in the greenhouse and sprayed with PURSUIT® imazethapyr at 63, 125, or 250 g ai/ha. For post-emergence application, the plants were sprayed 15 days after seeding, at which time most plants had 3 leaves. For pre-emergence treatment, PURSUIT® imazethapyr was sprayed one day after seeding. Each treatment contained 20 plants and, and 3 replicates per treatment. One set of materials was not sprayed and used as control. The plants were grown in the greenhouse and harvested at maturity. The amount of PURSUIT® imazethapyr applied in this study (63, 125, or 250 g ai/ha) was close to 1, 2 or 4× field application rate for imi-resistant corn (refer to Table 3) since PURSUIT® imazethapyr is not currently labeled for use in rice fields. A custom designed belt sprayer was operated as described (Newhouse et al. 1992) for all herbicide applications. Five plants from each treatment were randomly chosen and individually measured for morphological traits. Means and standard deviations were calculated over three replications. Plant heights were measured from the base of the plant to the tip of the flag leaf 93 days after herbicide applications (DAH) and number of tillers per plant were counted 102-103 DAH. Data on number of panicles per plant and yield were collected after plants were harvested.
(§1) A total of 9 herbicides, 5 imidazolinones, two rice herbicides and ACCENT® (nicosulfuron) and CLASSIC® (clorimuron-ethyl) were applied in this study. Materials and methods were basically the same as described above, except that instead of 6″ pots, flats with 18 (3″×3″ per cell) cells were used, and 10-12 seeds were planted to one 3″×3″ cell. Ten plants were maintained in one cell in the post-emergence application. Each herbicide was sprayed at 4 different rates, 1, 2, 4, and 6×, as either pre or post-emergence applications with three replications per treatment. The name and amount of herbicide applied in this experiment and information relevant to their commercial applications are listed in Table 3. For simplicity and convenience, the lowest concentration used is referred as 1× rate, 2, 4 and 6× rates can be calculated as multiples of 1×.
(§2) To monitor plant response to various herbicides, data on fresh weight was collected. For pre-emergence applications, all plants from one cell were harvested 32 days after spraying (36-day old plants) and weighed. Twenty-nine days after herbicide application, 5 plants (44-day old plants) from each cell in the post-emergence application, were cut and weighed individually. Mean fresh weight for each treatment was calculated over three replications. The remaining 5 plants were grown in the greenhouse to maturity at which time, panicles of 3 plants were collected, and number of filled seeds and number of total kernels were counted to determine percentage of seed set.

transgenic rice Line 26 = assay: Response of rice plants to various herbicides, seed set in greenhouse; conditions: post-emergence, 1× g ai/ha: PURSUIT 62.5, CADRE 32, ARSENAL 24, RAPTOR 32, SCEPTER 125, ACCENT 35, CLASSIC 5, AC322,140 20, LONDAX 68
Source text: as §1, §2

transgenic rice Line 29 = assay: as above; conditions: post-emergence, 1× g ai/ha: PURSUIT 62.5, CADRE 32, ARSENAL 24, RAPTOR 32, SCEPTER 125, ACCENT 35, CLASSIC 5, AC322,140 20, LONDAX 68
Source text: as §1, §2

[2] = test system: untransformed Nt rice plants; assay: as above; conditions: post-emergence, 1× g ai/ha: PURSUIT 62.5, CADRE 32, ARSENAL 24, RAPTOR 32, SCEPTER 125, ACCENT 35, CLASSIC 5, AC322,140 20, LONDAX 68
Source text: as §1, §2

| Structure (SMILES) | % seed-set (transgenic rice Line 26; 1× rate) [%] | No. filled seeds/3 panicles (transgenic rice Line 26; 1× rate) | Total No. of kernels/3 panicles (transgenic rice Line 26; 1× rate) | % seed-set (transgenic rice Line 26; 2× rate) [%] | No. filled seeds/3 panicles (transgenic rice Line 26; 2× rate) | Total No. of kernels/3 panicles (transgenic rice Line 26; 2× rate) | % seed-set (transgenic rice Line 26; 4× rate) [%] | No. filled seeds/3 panicles (transgenic rice Line 26; 4× rate) | Total No. of kernels/3 panicles (transgenic rice Line 26; 4× rate) | % seed-set (transgenic rice Line 26; 6× rate) [%] | No. filled seeds/3 panicles (transgenic rice Line 26; 6× rate) | Total No. of kernels/3 panicles (transgenic rice Line 26; 6× rate) | % seed-set (transgenic rice Line 29; 1× rate) [%] | No. filled seeds/3 panicles (transgenic rice Line 29; 1× rate) | Total No. of kernels/3 panicles (transgenic rice Line 29; 1× rate) | % seed-set (transgenic rice Line 29; 2× rate) [%] | No. filled seeds/3 panicles (transgenic rice Line 29; 2× rate) | Total No. of kernels/3 panicles (transgenic rice Line 29; 2× rate) | % seed-set (transgenic rice Line 29; 4× rate) [%] | No. filled seeds/3 panicles (transgenic rice Line 29; 4× rate) | also measured |
| --- | --- | --- | --- | --- | --- | --- | --- | --- | --- | --- | --- | --- | --- | --- | --- | --- | --- | --- | --- | --- | --- |
| COc1cc(OC)nc(NC(=O)NS(=O)(=O)c2ncccc2C(=O)N(C)C)n1 [ACCENT ®, nicosulfuron] | 34 | 82 | 145 | 0 | 0 | 0 | 0 | 0 | 0 | 0 | 0 | 0 | 82 | 94 | 114 | 10 | 24 | 48 | 0 | 0 | effect on plant growth at 1× rates ([1]; post-emergence): greatly affected plant growth; Total No. of kernels/3 panicles (transgenic rice Line 29; 4× rate): 0; % seed-set (transgenic rice Line 29; 6× rate): 0%; No. filled seeds/3 panicles (transgenic rice Line 29; 6× rate): 0; Total No. of kernels/3 panicles (transgenic rice Line 29; 6× rate): 0; % seed-set ([2]; 1× rate): 3%; No. filled seeds/3 panicles ([2]; 1× rate): 6; Total No. of kernels/3 panicles ([2]; 1× rate): 24; % seed-set ([2]; 2× rate): 0%; No. filled seeds/3 panicles ([2]; 2× rate): 0; Total No. of kernels/3 panicles ([2]; 2× rate): 0; % seed-set ([2]; 4× rate): 0%; No. filled seeds/3 panicles ([2]; 4× rate): 0; Total No. of kernels/3 panicles ([2]; 4× rate): 0; % seed-set ([2]; 6× rate): 0%; No. filled seeds/3 panicles ([2]; 6× rate): 0; Total No. of kernels/3 panicles ([2]; 6× rate): 0 |
| COC(=O)c1ccccc1CS(=O)(=O)NC(=O)Nc1nc(OC)cc(OC)n1 [LONDAX ®, bensulfuron-methyl] | 80 | 140 | 173 | 90 | 140 | 156 | 65 | 102 | 136 | 89 | 127 | 143 | 80 | 125 | 156 | 90 | 133 | 148 | 87 | 155 | effect on growth of all plants treated [1]: minimal effect; Total No. of kernels/3 panicles (transgenic rice Line 29; 4× rate): 177; % seed-set (transgenic rice Line 29; 6× rate): 86%; No. filled seeds/3 panicles (transgenic rice Line 29; 6× rate): 150; Total No. of kernels/3 panicles (transgenic rice Line 29; 6× rate): 175; % seed-set ([2]; 1× rate): 85%; No. filled seeds/3 panicles ([2]; 1× rate): 147; Total No. of kernels/3 panicles ([2]; 1× rate): 172; % seed-set ([2]; 2× rate): 93%; No. filled seeds/3 panicles ([2]; 2× rate): 142; Total No. of kernels/3 panicles ([2]; 2× rate): 154; % seed-set ([2]; 4× rate): 91%; No. filled seeds/3 panicles ([2]; 4× rate): 113; Total No. of kernels/3 panicles ([2]; 4× rate): 127; % seed-set ([2]; 6× rate): 96%; No. filled seeds/3 panicles ([2]; 6× rate): 109; Total No. of kernels/3 panicles ([2]; 6× rate): 114 |
| CCOC(=O)c1ccccc1S(=O)(=O)NC(=O)Nc1nc(Cl)cc(OC)n1 [CLASSIC ®, chlorimuron-ethyl] | 83 | 95 | 114 | 93 | 100 | 108 | 28 | 26 | 65 | 20 | 10 | 18 | 88 | 115 | 130 | 85 | 112 | 132 | 37 | 35 | effect on plant growth at 1× rates ([1]; post-emergence): greatly affected plant growth; Total No. of kernels/3 panicles (transgenic rice Line 29; 4× rate): 45; % seed-set (transgenic rice Line 29; 6× rate): 4%; No. filled seeds/3 panicles (transgenic rice Line 29; 6× rate): 5; Total No. of kernels/3 panicles (transgenic rice Line 29; 6× rate): 14; % seed-set ([2]; 1× rate): 87%; No. filled seeds/3 panicles ([2]; 1× rate): 87; Total No. of kernels/3 panicles ([2]; 1× rate): 99; % seed-set ([2]; 2× rate): 92%; No. filled seeds/3 panicles ([2]; 2× rate): 90; Total No. of kernels/3 panicles ([2]; 2× rate): 97; % seed-set ([2]; 4× rate): 0%; No. filled seeds/3 panicles ([2]; 4× rate): 0; Total No. of kernels/3 panicles ([2]; 4× rate): 0; % seed-set ([2]; 6× rate): 0%; No. filled seeds/3 panicles ([2]; 6× rate): 0; Total No. of kernels/3 panicles ([2]; 6× rate): 0 |
| CC(C)C1(C)N=C(c2nc3ccccc3cc2C(=O)O)NC1=O (stereo not shown) [SCEPTER ®, imazaquin] | 86 | 148 | 172 | 64 | 87 | 135 | 88 | 147 | 166 | 62 | 86 | 109 | 87 | 138 | 159 | 86 | 143 | 165 | 85 | 131 | average seed set in two transgenic lines ([1]; PURSUIT, RAPTOR, CADRE, SCEPTER at all rates tested, ARSENAL 1 to 2×): about 85%; rate at which growth of transgenic plants was slightly affected ([1]; post-emergence, fresh weight and visual observation): 6 ×; rate at which growth of both transgenic lines was affected ([1]; pre-emergence): ≥ 2 ×; Total No. of kernels/3 panicles (transgenic rice Line 29; 4× rate): 155; % seed-set (transgenic rice Line 29; 6× rate): 88%; No. filled seeds/3 panicles (transgenic rice Line 29; 6× rate): 139; Total No. of kernels/3 panicles (transgenic rice Line 29; 6× rate): 159; % seed-set ([2]; 1× rate): 0%; No. filled seeds/3 panicles ([2]; 1× rate): 0; Total No. of kernels/3 panicles ([2]; 1× rate): 0; % seed-set ([2]; 2× rate): 0%; No. filled seeds/3 panicles ([2]; 2× rate): 0; Total No. of kernels/3 panicles ([2]; 2× rate): 0; % seed-set ([2]; 4× rate): 0%; No. filled seeds/3 panicles ([2]; 4× rate): 0; Total No. of kernels/3 panicles ([2]; 4× rate): 0; % seed-set ([2]; 6× rate): 0%; No. filled seeds/3 panicles ([2]; 6× rate): 0; Total No. of kernels/3 panicles ([2]; 6× rate): 0 |
| COc1cc(OC)nc(NC(=O)NS(=O)(=O)Nc2ccccc2C(=O)C2CC2)n1 [AC 322,140, cyclosulfamuron] | 90 | 144 | 160 | 94 | 158 | 168 | 91 | 166 | 182 | 85 | 134 | 158 | 91 | 150 | 166 | 92 | 172 | 187 | 80 | 129 | effect on growth of all plants treated [1]: minimal effect; Total No. of kernels/3 panicles (transgenic rice Line 29; 4× rate): 160; % seed-set (transgenic rice Line 29; 6× rate): 87%; No. filled seeds/3 panicles (transgenic rice Line 29; 6× rate): 134; Total No. of kernels/3 panicles (transgenic rice Line 29; 6× rate): 154; % seed-set ([2]; 1× rate): 93%; No. filled seeds/3 panicles ([2]; 1× rate): 175; Total No. of kernels/3 panicles ([2]; 1× rate): 187; % seed-set ([2]; 2× rate): 93%; No. filled seeds/3 panicles ([2]; 2× rate): 158; Total No. of kernels/3 panicles ([2]; 2× rate): 171; % seed-set ([2]; 4× rate): 95%; No. filled seeds/3 panicles ([2]; 4× rate): 83; Total No. of kernels/3 panicles ([2]; 4× rate): 86; % seed-set ([2]; 6× rate): 98%; No. filled seeds/3 panicles ([2]; 6× rate): 118; Total No. of kernels/3 panicles ([2]; 6× rate): 121 |
